Data published in ChEMBL document CHEMBL1201862, “PubChem BioAssay data set” (2004).
Activity calls are given as the source filed them.

What was measured:
[1] = target: T1, Calpain-2 catalytic subunit (Sus scrofa, UniProt P43367); assay: pig calpain II inhibitor potency, dose response, biochemical, fluorogenic peptide substrate (AID 1420); assay type: functional
T1 sequence (P43367 whole entry): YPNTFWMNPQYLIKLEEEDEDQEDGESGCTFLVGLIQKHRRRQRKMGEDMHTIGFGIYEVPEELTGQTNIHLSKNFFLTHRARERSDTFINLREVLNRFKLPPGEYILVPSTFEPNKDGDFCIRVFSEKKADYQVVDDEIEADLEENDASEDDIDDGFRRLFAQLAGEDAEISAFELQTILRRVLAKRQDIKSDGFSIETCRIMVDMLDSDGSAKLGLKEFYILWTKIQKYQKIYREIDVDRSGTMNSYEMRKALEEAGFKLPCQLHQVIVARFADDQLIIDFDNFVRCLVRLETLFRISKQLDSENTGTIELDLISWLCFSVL

[2] = target: Luciferin 4-monooxygenase (Photinus pyralis, UniProt P08659); assay: firefly luciferase enzyme inhibitors, dose response, biochemical, luminescence (AID 1891)
[3] = Luminescence Cell-Based Dose Confirmation HTS to Identify Inhibitors of Platelet Dense Granule Release. [Related pubchem assays: 1663 (Primary HTS), 1678 (Summary of Project)]; assay type: functional
Protein skinhead-1 = target: T2, Protein skinhead-1 (Caenorhabditis elegans, UniProt P34707); assay type: functional
T2 sequence (P34707 whole entry): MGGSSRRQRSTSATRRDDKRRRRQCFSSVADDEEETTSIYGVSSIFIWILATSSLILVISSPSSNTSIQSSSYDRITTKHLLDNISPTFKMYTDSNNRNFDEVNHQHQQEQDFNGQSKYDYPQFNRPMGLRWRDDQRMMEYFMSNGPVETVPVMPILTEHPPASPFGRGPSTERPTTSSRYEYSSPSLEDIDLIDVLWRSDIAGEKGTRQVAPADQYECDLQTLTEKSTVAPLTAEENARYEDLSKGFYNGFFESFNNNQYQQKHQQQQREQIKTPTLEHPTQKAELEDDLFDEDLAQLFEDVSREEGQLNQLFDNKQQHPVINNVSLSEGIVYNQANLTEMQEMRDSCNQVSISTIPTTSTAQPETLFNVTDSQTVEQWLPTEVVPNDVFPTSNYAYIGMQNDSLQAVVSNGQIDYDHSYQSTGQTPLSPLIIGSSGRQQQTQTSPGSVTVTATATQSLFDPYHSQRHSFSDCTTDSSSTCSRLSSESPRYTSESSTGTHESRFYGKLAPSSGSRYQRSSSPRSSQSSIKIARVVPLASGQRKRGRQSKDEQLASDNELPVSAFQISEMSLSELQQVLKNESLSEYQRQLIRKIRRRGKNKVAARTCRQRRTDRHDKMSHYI

Cytochrome P450 3A4 = Cytochrome P450 3A4 (Homo sapiens, UniProt P08684); details: Potency;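 also: confirmatory qHTS run detecting inhibitors and substrates of CYP3A4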
Fatty acid synthase [4] = target: T3, Fatty acid synthase (Homo sapiens, UniProt P49327); assay: FAS thioesterase domain inhibitors, dose response, biochemical, endpoint fluorescence intensity, uHTS hits (AID 624327); assay type: functional;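 also: fluorescence from hydrolysis of an O-methyl fluorescein acyl ester substrate by the enzyme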
Fatty acid synthase [5] = target: T3, Fatty acid synthase; assay: FAS thioesterase domain inhibitors, dose response, biochemical, kinetic fluorescence intensity (AID 624326); assay type: functional;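 also: rate of fluorescence rise from hydrolysis of a fluorogenic O-methyl fluorescein ester substrate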
[6] = inhibitors of HIV Env-driven cell fusion, dose response, cherry-pick (AID 652057); assay type: functional, cell-based
[7] = ZM109 Env clade C HIV-1 fusion inhibitors, dose response, HeLa effector, CEM target cells, luciferase, cherry-pick (AID 652058); assay type: functional, cell-based
[8] = inhibitors of clade B AD8 Env fusion, dose response, cell-based, cherry-pick (AID 652062); assay type: functional;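 also: luciferase signal from cell-cell fusion driven by HIV-1 clade B AD8 Env; potency is for inhibitors of fusion seen as a drop in luminescence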
[9] = P. falciparum Dd2 growth inhibitors, dose response, SYBR Green, cherry-picked samples (AID 1159567); assay type: functional, cell-based
[10] = target: T4, High affinity choline transporter 1 (Homo sapiens, UniProt Q9GZV3); assay: CHT inhibitors, dose response, cell-based, 5-point CRC, membrane potential dye (AID 504840); assay type: functional
T4 sequence (Q9GZV3 whole entry): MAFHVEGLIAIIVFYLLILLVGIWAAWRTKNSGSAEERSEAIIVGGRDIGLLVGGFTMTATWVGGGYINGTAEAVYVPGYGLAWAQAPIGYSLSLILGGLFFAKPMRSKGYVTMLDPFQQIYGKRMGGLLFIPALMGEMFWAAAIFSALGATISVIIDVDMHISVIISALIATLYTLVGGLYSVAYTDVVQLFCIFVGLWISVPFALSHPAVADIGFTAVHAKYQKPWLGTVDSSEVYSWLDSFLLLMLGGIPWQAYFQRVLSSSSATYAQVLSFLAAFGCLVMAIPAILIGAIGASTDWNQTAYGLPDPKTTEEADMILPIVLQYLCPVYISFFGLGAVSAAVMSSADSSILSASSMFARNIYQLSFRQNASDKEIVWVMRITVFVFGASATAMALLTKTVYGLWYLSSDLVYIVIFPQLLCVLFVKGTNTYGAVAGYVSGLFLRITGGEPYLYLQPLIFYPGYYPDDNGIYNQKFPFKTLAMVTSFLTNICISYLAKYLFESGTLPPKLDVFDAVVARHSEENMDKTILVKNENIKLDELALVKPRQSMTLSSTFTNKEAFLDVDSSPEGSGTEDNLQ

Paired box protein Pax-8 = Paired box protein Pax-8 (Homo sapiens, UniProt Q06710); assay: inhibitors of PAX8-driven TPO luciferase reporter, dose response, RMG-I cells, cherry-pick (AID 687027); assay type: functional, cell-based;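 also: luciferase reporter driven by Pax8 target thyroperoxidase promoter measured by SteadyGlo luminescence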
[11] = inhibitors of intracellular T. cruzi replication, confirmation, NIH3T3 host cells, beta-gal luminescence (AID 2044); assay type: functional, cell-based;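 also: intracellular parasites grown in NIH/3T3 mouse fibroblasts as host cells; luminescent beta-galactosidase reporter signal from transgenic T. cruzi replicating inside host cells; inhibitors lower the luminescence signal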
[12] = cytotoxicity toward NIH3T3 fibroblasts, dose response, counter-screen, cell-based, ATP luminescence, mouse fibroblasts (AID 2010); assay type: functional;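 also: cells exposed to compound for about 90 hours before reading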

T3 sequence (P49327 whole entry, the tested form may be a part): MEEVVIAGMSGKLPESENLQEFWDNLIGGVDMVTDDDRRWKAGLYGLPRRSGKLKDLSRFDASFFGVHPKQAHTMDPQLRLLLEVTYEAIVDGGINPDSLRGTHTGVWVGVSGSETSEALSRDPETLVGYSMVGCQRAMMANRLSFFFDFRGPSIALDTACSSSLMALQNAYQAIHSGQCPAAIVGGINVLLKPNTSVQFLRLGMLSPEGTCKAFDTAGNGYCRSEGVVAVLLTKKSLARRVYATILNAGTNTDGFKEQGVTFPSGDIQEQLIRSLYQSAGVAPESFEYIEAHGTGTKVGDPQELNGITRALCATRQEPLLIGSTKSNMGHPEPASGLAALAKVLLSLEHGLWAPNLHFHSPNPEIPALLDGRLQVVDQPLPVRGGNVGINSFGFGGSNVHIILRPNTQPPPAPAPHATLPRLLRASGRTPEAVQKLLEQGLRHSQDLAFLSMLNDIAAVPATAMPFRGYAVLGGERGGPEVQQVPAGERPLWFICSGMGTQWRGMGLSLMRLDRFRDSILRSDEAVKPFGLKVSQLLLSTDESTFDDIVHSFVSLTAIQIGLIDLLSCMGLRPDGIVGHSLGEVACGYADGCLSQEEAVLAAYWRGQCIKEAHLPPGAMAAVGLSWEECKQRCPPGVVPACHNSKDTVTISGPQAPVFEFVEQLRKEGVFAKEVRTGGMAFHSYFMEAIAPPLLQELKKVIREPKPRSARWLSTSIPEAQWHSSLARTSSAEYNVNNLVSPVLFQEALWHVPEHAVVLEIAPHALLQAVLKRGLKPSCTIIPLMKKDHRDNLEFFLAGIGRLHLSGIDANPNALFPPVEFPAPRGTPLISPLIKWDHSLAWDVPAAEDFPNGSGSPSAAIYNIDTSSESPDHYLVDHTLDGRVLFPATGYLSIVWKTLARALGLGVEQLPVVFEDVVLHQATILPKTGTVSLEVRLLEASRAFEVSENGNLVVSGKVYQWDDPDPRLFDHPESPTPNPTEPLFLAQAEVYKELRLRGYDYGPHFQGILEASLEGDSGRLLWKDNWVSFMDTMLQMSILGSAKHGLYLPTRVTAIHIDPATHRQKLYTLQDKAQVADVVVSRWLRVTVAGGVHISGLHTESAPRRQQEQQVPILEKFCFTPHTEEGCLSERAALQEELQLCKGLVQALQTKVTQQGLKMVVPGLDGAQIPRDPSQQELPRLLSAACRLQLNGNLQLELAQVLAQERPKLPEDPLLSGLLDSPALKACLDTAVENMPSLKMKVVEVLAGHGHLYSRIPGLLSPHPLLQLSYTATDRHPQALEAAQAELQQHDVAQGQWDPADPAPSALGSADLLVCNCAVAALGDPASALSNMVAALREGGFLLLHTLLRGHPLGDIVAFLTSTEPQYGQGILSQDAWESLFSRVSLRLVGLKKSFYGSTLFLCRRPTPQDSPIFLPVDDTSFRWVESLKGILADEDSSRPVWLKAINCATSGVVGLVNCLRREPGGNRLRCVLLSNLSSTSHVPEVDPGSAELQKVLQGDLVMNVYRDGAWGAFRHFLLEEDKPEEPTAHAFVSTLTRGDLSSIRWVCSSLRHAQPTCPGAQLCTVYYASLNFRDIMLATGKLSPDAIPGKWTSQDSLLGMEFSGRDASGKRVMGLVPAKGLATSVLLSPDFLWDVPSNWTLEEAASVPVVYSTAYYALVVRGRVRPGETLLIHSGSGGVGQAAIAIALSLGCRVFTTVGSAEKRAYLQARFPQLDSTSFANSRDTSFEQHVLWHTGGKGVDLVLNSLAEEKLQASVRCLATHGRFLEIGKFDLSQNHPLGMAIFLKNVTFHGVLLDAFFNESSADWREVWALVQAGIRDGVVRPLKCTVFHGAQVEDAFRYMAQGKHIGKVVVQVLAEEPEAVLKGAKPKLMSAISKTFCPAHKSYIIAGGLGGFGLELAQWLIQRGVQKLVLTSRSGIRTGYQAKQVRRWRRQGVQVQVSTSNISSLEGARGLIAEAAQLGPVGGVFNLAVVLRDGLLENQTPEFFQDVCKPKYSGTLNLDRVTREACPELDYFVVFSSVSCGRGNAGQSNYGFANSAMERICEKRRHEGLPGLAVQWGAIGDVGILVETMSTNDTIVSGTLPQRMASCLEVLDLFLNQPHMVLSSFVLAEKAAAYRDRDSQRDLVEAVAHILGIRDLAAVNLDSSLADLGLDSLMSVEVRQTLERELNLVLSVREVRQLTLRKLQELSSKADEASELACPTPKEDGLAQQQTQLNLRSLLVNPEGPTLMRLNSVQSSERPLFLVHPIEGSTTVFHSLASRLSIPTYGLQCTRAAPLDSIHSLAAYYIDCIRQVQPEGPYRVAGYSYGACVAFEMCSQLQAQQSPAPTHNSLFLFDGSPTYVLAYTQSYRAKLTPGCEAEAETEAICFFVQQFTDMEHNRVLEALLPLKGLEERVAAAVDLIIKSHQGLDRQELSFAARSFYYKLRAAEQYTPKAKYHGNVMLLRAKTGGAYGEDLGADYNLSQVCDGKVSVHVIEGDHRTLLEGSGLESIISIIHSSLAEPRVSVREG
Sequence of Luciferin 4-monooxygenase (P08659 whole entry): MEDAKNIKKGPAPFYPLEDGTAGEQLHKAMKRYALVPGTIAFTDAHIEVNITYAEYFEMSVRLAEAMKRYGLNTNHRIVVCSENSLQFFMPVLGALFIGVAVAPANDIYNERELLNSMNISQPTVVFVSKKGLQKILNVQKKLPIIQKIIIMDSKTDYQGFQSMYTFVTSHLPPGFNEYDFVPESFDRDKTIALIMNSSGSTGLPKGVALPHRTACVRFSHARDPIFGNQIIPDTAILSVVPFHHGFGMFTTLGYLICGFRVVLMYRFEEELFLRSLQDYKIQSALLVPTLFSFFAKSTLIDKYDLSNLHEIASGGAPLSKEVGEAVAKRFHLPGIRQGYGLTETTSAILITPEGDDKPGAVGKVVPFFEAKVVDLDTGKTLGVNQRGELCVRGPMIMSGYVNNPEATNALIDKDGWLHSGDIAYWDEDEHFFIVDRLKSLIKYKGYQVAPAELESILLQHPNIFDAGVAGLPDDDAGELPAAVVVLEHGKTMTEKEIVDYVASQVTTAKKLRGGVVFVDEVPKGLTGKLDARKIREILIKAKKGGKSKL
Sequence of Cytochrome P450 3A4 (P08684 whole entry, the tested form may be a part): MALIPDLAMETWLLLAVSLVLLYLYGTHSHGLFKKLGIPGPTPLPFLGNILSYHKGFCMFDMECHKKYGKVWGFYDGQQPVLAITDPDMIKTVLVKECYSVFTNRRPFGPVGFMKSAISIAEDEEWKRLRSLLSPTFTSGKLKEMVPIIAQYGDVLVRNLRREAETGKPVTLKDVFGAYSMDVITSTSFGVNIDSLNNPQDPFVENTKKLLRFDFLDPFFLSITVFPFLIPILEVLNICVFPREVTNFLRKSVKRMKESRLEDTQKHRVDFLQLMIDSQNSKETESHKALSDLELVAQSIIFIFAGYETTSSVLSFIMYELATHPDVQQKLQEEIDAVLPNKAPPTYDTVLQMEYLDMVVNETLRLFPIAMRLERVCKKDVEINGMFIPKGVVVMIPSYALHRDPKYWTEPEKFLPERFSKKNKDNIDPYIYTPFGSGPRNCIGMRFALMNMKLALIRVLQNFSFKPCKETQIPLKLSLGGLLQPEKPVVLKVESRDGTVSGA
Sequence of Paired box protein Pax-8 (Q06710 whole entry): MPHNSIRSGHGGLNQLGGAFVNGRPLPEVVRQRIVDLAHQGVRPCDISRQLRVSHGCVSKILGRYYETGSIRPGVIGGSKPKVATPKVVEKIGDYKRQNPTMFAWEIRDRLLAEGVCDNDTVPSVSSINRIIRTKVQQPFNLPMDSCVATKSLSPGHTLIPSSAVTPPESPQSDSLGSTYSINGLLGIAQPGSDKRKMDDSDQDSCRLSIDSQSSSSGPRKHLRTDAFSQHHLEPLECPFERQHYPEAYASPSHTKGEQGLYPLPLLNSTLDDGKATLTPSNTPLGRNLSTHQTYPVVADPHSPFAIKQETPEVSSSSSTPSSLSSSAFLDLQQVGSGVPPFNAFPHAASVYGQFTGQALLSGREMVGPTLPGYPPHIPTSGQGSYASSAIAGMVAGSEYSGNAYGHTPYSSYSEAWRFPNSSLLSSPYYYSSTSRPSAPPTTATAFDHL

Cc1nn(-c2ccc(Cl)c(Cl)c2Cl)c(=O)c2ccccc12
IC50 [1]: 22.8 µM (not active)

COCCn1cc(C(=O)N2CCC(C)CC2)c2c3ccccc3n(C)c2c1=O
EC50 [2]: > 112 µM (not active)
EC50 [3]: > 112 µM (not active)

CC(=O)c1cccc(NC(=O)N2CCCC2C(=O)Nc2c(C)cccc2C)c1 (stereo not given)
IC50 (Protein skinhead-1): > 100 µM (inactive)

COC(=O)c1ccc(C23CC4(C2)[C@H](CN(CC2CCCCC2)[C@@H]4c2ccccc2)C3c2ccc(C(F)(F)F)cc2)cc1 (stereo not given in full)
AC50 (Cytochrome P450 3A4): 15.8 µM (inconclusive)

O=C(Nc1c(C(=O)N2CCOCC2)cnn1-c1ccccc1)c1ccc([N+](=O)[O-])cc1
IC50 (Fatty acid synthase [4]): 11.7 µM (active)
IC50 (Fatty acid synthase [5]): 9.36 µM (active)

Cc1ccc([N+](=O)[O-])cc1NC(=O)C[n+]1ccccc1
IC50 [1]: > 50 µM (not active)

COC(=O)[C@@H]1C[C@@]2(O)[C@H](O)[C@H](O)[C@H](O)C[C@H]2N1Cc1cccnc1
AC50 (Cytochrome P450 3A4): 31.6 µM (inconclusive)

CCOC(=O)N1CCC(Nc2ccc(N3C(=O)C4CCCCC4C3=O)cc2[N+](=O)[O-])CC1 (stereo not given)
IC50 [1]: 7.24 µM (active)

CC(=O)NC1(c2ccccc2)CCN(C(=O)N2CCOCC2)CC1
IC50 [1]: 7.15 µM (not active)

CCOC(=O)N1CCN(CC(=O)N2CCC(C(N)=O)CC2)CC1
EC50 [2]: > 112 µM (not active)
EC50 [3]: > 112 µM (not active)

c1ccc2c(c1)OCCc1c-2[nH]c2ccccc12
IC50 (Protein skinhead-1): > 100 µM (inactive)

Cc1cccc(OCC(=O)Nc2nc[nH]n2)c1C
EC50 [3]: > 112 µM (not active)

C[C@H](CO)N1C[C@H](C)[C@H](CN(C)S(=O)(=O)c2cccs2)Oc2ccc(NC(=O)Nc3cccc4ccccc34)cc2CC1=O
AC50 [6]: < 0.26 µM (active)
AC50 [7]: < 0.26 µM (active)
AC50 [8]: < 0.26 µM (active)

COc1ccc(NC(=O)N(C)C[C@H]2OCc3ccccc3-c3c(n(C)c4ccccc34)C(=O)N([C@@H](C)CO)C[C@H]2C)c(OC)c1
AC50 [9]: 4.92 µM (active)

FC(F)(F)c1cnc2c(-c3ccc(Cl)cc3Cl)noc2c1
IC50 (Protein skinhead-1): > 100 µM (inactive)

Cc1nn(Cc2ccc(Cl)cc2Cl)c(C)c1NC(=O)c1nn(C)cc1Cl
IC50 [1]: 0.917 µM (not active)

O=C(/C=C/c1cccc([N+](=O)[O-])c1)N1CCN(S(=O)(=O)c2cccs2)CC1
IC50 (Fatty acid synthase [4]): 2.69 µM (active)
IC50 (Fatty acid synthase [5]): 2.31 µM (active)

COc1ccc(CN2C[C@H](C)[C@H](OC)CN(C)C(=O)c3cc(NC(=O)c4nc5ccccc5s4)ccc3OC[C@@H]2C)cc1
AC50 [9]: 5.29 µM (active)

COc1ccc(C(=O)N/C(=C\c2cn(S(=O)(=O)N(C)C)c3ccccc23)C(=O)N2CCOCC2)cc1
IC50 (Fatty acid synthase [4]): 1.83 µM (active)
IC50 (Fatty acid synthase [5]): 4.26 µM (active)

C[C@H](CO)N1C[C@H](C)[C@H](CN(C)C(=O)C2CC2)Oc2cc(C#Cc3ccccc3)ccc2S1(=O)=O
AC50 [9]: 4.27 µM (active)

CCCCCc1nc2sc3c(c2c(=O)n1NC(=O)c1ccc([N+](=O)[O-])cc1)CC(C)(C)OC3
IC50 [10]: 12.6 µM (active)
IC50 (Fatty acid synthase [4]): 5.09 µM (active)
IC50 (Fatty acid synthase [5]): 5.75 µM (active)

COc1cc2sc3ccc(C#Cc4ccc(N)cc4)cc3c(=O)c2cc1OC
IC50 (Protein skinhead-1): > 100 µM (inactive)

Clc1ccc(OCCSc2ncccn2)cc1
IC50 (Protein skinhead-1): 43.9 µM (active)

COc1cccc(S(=O)(=O)N2CCC3(CC2)CN[C@@H](CO)c2[nH]c4cc(OC)ccc4c23)c1
AC50 [9]: 5.39 µM (active)

CCOC(=O)[C@@H]1[C@H]2COc3ccc(Br)cc3[C@@H]2N2C(=O)N(c3cccc(Cl)c3)C(=O)[C@@]12C
IC50 (Fatty acid synthase [4]): 22.9 µM (inactive)
IC50 (Fatty acid synthase [5]): 11.8 µM (active)

CCCn1c(C)nc2c(NCc3ccccc3)nc(C)nc21
AC50 (Cytochrome P450 3A4): 15.8 µM (inconclusive)

Cc1nn2cc(-c3ccc(Cl)cc3)nc2s1
IC50 (Protein skinhead-1): 15.6 µM (active)

CCC(C)NC(=O)CSc1nc2c(sc(=S)n2Cc2ccco2)c(=O)n1-c1ccccc1 (stereo not given)
IC50 (Fatty acid synthase [4]): 30 µM (inactive)
IC50 (Fatty acid synthase [5]): 60.6 µM (inactive)

Cc1ccc(S(=O)(=O)Nc2cccc(-c3ccc(N4CCCCCC4)nn3)c2)c(C)c1
IC50 (Fatty acid synthase [4]): 5.11 µM (active)
IC50 (Fatty acid synthase [5]): 6.9 µM (active)

c1cc2c3c(c1)ccc1cccc(c13)C2
AC50 (Cytochrome P450 3A4): 25.1 µM (inconclusive)

CC(C)(C)OC(=O)N1CCc2onc(-c3ccc(Br)cc3)c2C1=O
AC50 [6]: 64.9 µM (active)
AC50 [8]: 59.9 µM (active)

CC(=O)N1CC=CC1(CC(C)C)C(=O)NCc1ccccn1 (stereo not given)
AC50 (Cytochrome P450 3A4): 20 µM (inconclusive)

Cc1cccc(OCC(=O)Nc2nnc[nH]2)c1C
EC50 [2]: > 112 µM (not active)

CCc1cccc(C)c1NC(=O)COC(=O)c1cc([N+](=O)[O-])ccc1N1CCOCC1
IC50 (Fatty acid synthase [4]): 10.5 µM (active)
IC50 (Fatty acid synthase [5]): 10.7 µM (active)

COc1cc2c(cc1OC)C1Cc3ccc(OC)c(OC)c3CN1CC2 (stereo not given)
AC50 (Cytochrome P450 3A4): 31.6 µM (inconclusive)

COc1ccc2c(c1)OCc1c-2oc2cc(OC)ccc12 [DEHYDROVARIABILIN]
AC50 (Cytochrome P450 3A4): 39.8 µM (inconclusive)

C[C@@H]1CCCCO[C@H](CN(C)S(=O)(=O)c2ccc(Cl)cc2)[C@@H](C)CN([C@@H](C)CO)C(=O)c2cc(NC(=O)Nc3ccc(C(F)(F)F)cc3)ccc2O1
AC50 (Paired box protein Pax-8): 2.87 µM (active)

CC(=O)[C@@H]1[C@H]2[C@H](C(=O)[C@H]3OC[C@@H]2O3)[C@H]2C=Cc3ccccc3N21
AC50 (Cytochrome P450 3A4): 25.1 µM (inconclusive)

CCOC(=O)N1CCN(Cc2nc3c(c(=O)n(C)c(=O)n3C)n2Cc2cccc3ccccc23)CC1
EC50 [2]: > 112 µM (not active)
EC50 [3]: > 112 µM (not active)

C[C@H](CO)N1C[C@H](C)[C@@H](CN(C)Cc2ccc(Oc3ccccc3)cc2)Oc2ccc(NS(=O)(=O)c3cn(C)cn3)cc2CC1=O
AC50 [9]: 9.82 µM (active)

COc1ccccc1C1C(C(=O)NCc2ccccc2)=C(C)Nc2ncnn21 (stereo not given)
IC50 (Protein skinhead-1): > 100 µM (inactive)

C[C@@H]1CN([C@H](C)CO)S(=O)(=O)c2ccc(C#Cc3ccccc3)cc2O[C@H]1CN(C)S(=O)(=O)c1cn(C)cn1
AC50 [9]: 3.7 µM (active)

Cn1cc(C2=C(c3cn(CCCSC(=N)N)c4ccccc34)C(=O)NC2=O)c2ccccc21
AC50 (Cytochrome P450 3A4): 6.31 µM (inconclusive)

CCOC(=O)NCCc1ccc(OC)cc1
EC50 [2]: > 112 µM (not active)
EC50 [3]: > 112 µM (not active)

C[C@H](CO)N1C[C@H](C)[C@@H](CN(C)Cc2ccc(C(F)(F)F)cc2)Oc2ccc(NS(=O)(=O)c3ccc(F)cc3)cc2CC1=O
AC50 (Paired box protein Pax-8): 11.9 µM (active)

CC1=C(C(=O)c2ccccc2)C(c2cn(-c3ccccc3)nc2-c2ccc(Cl)cc2)NC(S)=N1 (stereo not given)
EC50 [11]: 2.33 µM (active)
EC50 [12]: > 30 µM (not active)
IC50 (Protein skinhead-1): > 100 µM (inactive)

COC(=O)CCC(C)C1CCC2C3C(O)C[C@@H]4CC(O)CC[C@@]4(C)C3CC(O)[C@]12C (stereo not given in full)
AC50 (Cytochrome P450 3A4): 20 µM (inconclusive)
